Test results: patent US20110105472A1, “Diaminopyrimidines as crop protection agents” (Bayer CropScience AG, priority 2008, published 2011)
Marks after values point to notes of the source that are not given here.

Columns and labels:
[1] = logP by LC-MS, method [b], acidic range pH 2.7; type: physicochemical; details: pH 2.7
[2] = system: Stellaria media (common chickweed); experiment: Herbicidal post-emergence action (PO), STEME; type: in vivo; details: dose 1000 g/ha, rated visually after about 2 weeks
Method: (§1) 2. Herbicidal Post-Emergence Action (═PO)
(§2) Seeds of monocotyledonous and dicotyledonous harmful plants are placed in sandy loam, covered with soil and cultivated in a greenhouse under good growth conditions. About 2 weeks after sowing, the test plants are treated at the one-leaf stage. To this end, the compounds according to the invention, formulated as emulsion concentrates (EC), as an aqueous emulsion with a water application rate of 800 l/ha (converted), are sprayed onto the green parts of the plants. After the test plants have been kept in the greenhouse under optimum growth conditions for about 2 weeks, the effect of the preparations is rated visually in comparison to untreated controls (herbicidal effect in percent (%): 100% effect=the plants have died, 0% effect=like control plants). CAPBP=Capsella bursa-pastoris (shepherd's purse), STEME=Stellaria media (common chickweed), ABUTH=Abutilon theophrasti (velvetleaf), AMARE=Amaranthus retroflexus (redroot pigweed)

[3] = system: Capsella bursa-pastoris (shepherd's purse); experiment: Herbicidal post-emergence action (PO), CAPBP; type: in vivo; details: dose 1000 g/ha, rated visually after about 2 weeks
Method: as §1, §2

[4] = system: Amaranthus retroflexus (redroot pigweed); experiment: Herbicidal post-emergence action (PO), AMARE; type: in vivo; details: dose 1000 g/ha, rated visually after about 2 weeks
Method: as §1, §2

[5] = system: Abutilon theophrasti (velvetleaf); experiment: Herbicidal post-emergence action (PO), ABUTH; type: in vivo; details: dose 1000 g/ha, rated visually after about 2 weeks
Method: as §1, §2

[6] = physchem; type: physicochemical; details: pH 7.8
[7] = logP by HPLC on reversed-phase columns (C 18), method [a], acidic range pH 2.3; type: physicochemical

## CSc1ccc(Nc2ncc(Cl)c(NC3CCC3)n2)cc1 [Compound 129]
[1]
  log p: 2.33[b]
[2]
  herbicidal effect STEME: 70%
[3]
  herbicidal effect CAPBP: 70%

## COc1cc(Nc2ncc(Br)c(NC3CCC3)n2)cc(OC)c1OC [Compound 38]
[4]
  herbicidal effect AMARE: 90%
[1]
  log p: 2.04[b]
[5]
  herbicidal effect ABUTH: 70%

## CSc1cccc(Nc2ncc(Cl)c(NC3CCC3)n2)c1 [Compound 128]
[4]
  herbicidal effect AMARE: 90%
[1]
  log p: 2.46[b]
[2]
  herbicidal effect STEME: 90%
[3]
  herbicidal effect CAPBP: 80%

## CCN(CC)C(=O)c1ccc(Nc2ncc(Cl)c(NC3CCC3)n2)cc1 [Compound 250]
[6]
  log p: 3.19[c]

## N#CCC(=O)c1ccc(Nc2ncc(Br)c(NC3CCC3)n2)cc1 [Compound 149]
[4]
  herbicidal effect AMARE: 90%
[1]
  log p: 2.57[b]
[2]
  herbicidal effect STEME: 70%
[3]
  herbicidal effect CAPBP: 90%

## CS(=O)(=O)Nc1cccc(Nc2ncc(Br)c(NC3CCC3)n2)c1 [Compound 87]
[4]
  herbicidal effect AMARE: 80%
[1]
  log p: 1.73[b]
[2]
  herbicidal effect STEME: 70%

## CC1(Nc2nc(Nc3ccccc3)ncc2Cl)CCC1 [Compound 52, 5-Chloro-N^4-(1-methylcyclobutyl)-N^2-phenylpyrimidine-2,4-diamine]
[1]
  chromatographic logP: 2.1
[7]; pH 2.3
  chromatographic logP: 2.1

## CC1CC(C)CN(c2cccc(Nc3ncc(Cl)c(NC4CCC4)n3)c2)C1 (stereo not shown) [Compound 51]
[6]
  log p: 5.82[c]
[7]; pH 2.3
  log p: 2.94[a];

## NS(=O)(=O)c1cc(Nc2ncc(Cl)c(NC3CCC3)n2)cc(C(F)(F)F)c1 [compound 24]
[7]; pH 2.3
  log p: 2.7[a]

## CN(C)S(=O)(=O)c1ccc(Nc2ncc(Cl)c(NC3CCC3)n2)cc1.Cl [Compound 2-7]
[7]; pH 2.3
  log p: 2.58^[a]

## O=C1CCCN1c1cccc(Nc2ncc(C(F)(F)F)c(NC3CCC3)n2)c1 [Compound 55]
[6]
  log p: 3.09[c]
[7]; pH 2.3
  log p: 2.64[a];

## CN(c1nc(Nc2ccccc2)ncc1Cl)C1CCC1 [compound 245]
[7]; pH 2.3
  log p: 3.32[a]

## CC(=O)Nc1cccc(Nc2ncc(Cl)c(NC3CCC3)n2)c1 [Compound 123]
[4]
  herbicidal effect AMARE: 100%
[1]
  log p: 1.51[b]
[2]
  herbicidal effect STEME: 70%
[3]
  herbicidal effect CAPBP: 80%

## O=C1CCCN1c1cc(Nc2ncc(C(F)(F)F)c(NC3CCC3)n2)ccc1F [Compound 211]
[6]
  log p: 2.96[c]
[7]; pH 2.3
  log p: 2.69[a];

## COc1cc(Nc2ncc(Cl)c(NC3CCC3)n2)cc(OC)c1.Cl [Compound 2-3]
[7]; pH 2.3
  log p: 2.23^[a]

## FC(F)(F)c1cnc(Cl)nc1NC1CCC1 [Compound V-4, 2-Chloro-N-cyclobutyl-5-trifluoromethylpyrimidine-4-amine]
[7]; pH 2.3
  chromatographic logP: 3.2

## CC(C)(C)OC(=O)N1CCN(c2ccc(Nc3ncc(Cl)c(NC4CCC4)n3)cc2)CC1 [compound 28]
[7]; pH 2.3
  log p: 2.73[a]

## CC(=O)c1cccc(Nc2ncc(Cl)c(NC3CCC3)n2)c1.Cl [Compound 2-4]
[7]; pH 2.3
  log p: 2.04^[a]

## FC(F)(F)c1cnc(Nc2ccccc2)nc1NC1CCC1 [Compound 54, N^4-Cyclobutyl-N^2-phenyl-5-(trifluoromethyl)pyrimidine-2,4-diamine]
[6]
  chromatographic logP: 3.96
[7]; pH 2.3
  chromatographic logP: 3.33

## O=C1CCCCCN1c1cccc(Nc2ncc(Br)c(NC3CCC3)n2)c1 [Compound 215]
[7]; pH 2.3
  log p: 2.08[a]

## Fc1ccc(Nc2ncc(Cl)c(NC3CCC3)n2)cc1 [Compound 47]
[6]
  log p: 3.7[c]
[7]; pH 2.3
  log p: 2.15[a];

## O=C1COCCN1c1ccc(Nc2ncc(Br)c(NC3CCC3)n2)cc1 [Compound 50]
[4]
  herbicidal effect AMARE: 70%
[1]
  log p: 1.53[b]
[2]
  herbicidal effect STEME: 80%

## Clc1ncc(Cl)c(NC2CCC2)n1 [Compound V-1, 2,5-Dichloro-N-cyclobutylpyrimidine-4-amine]
[7]; pH 2.3
  chromatographic logP: 2.62

## NS(=O)(=O)c1ccc(Nc2ncc(Cl)c(NC3CCC3)n2)cc1 [compound 27]
[7]; pH 2.3
  log p: 1.62[a]

## CC(C)Oc1ccc(Nc2ncc(Cl)c(NC3CCC3)n2)cc1.Cl [Compound 36, 5-Chloro-N^4-cyclobutyl-N^2-(4-isopropoxyphenyl)pyrimidine-2,4-diamine hydrochloride]
[1]
  log p: 2.44[b]
[7]; pH 2.3
  chromatographic logP: 2.21

## CS(=O)(=O)c1cccc(Nc2ncc(Cl)c(NC3CCC3)n2)c1 [Compound 263]
[6]
  log p: 2.63[c]

## CCOC(=O)Cc1ccc(Nc2ncc(Br)c(NC3CCC3)n2)cc1 [Compound 148]
[4]
  herbicidal effect AMARE: 90%
[1]
  log p: 2.3[b]
[2]
  herbicidal effect STEME: 70%
[3]
  herbicidal effect CAPBP: 80%
[5]
  herbicidal effect ABUTH: 70%

## O=C1CCCCCN1c1cccc(Nc2ncc(Cl)c(NC3CCC3)n2)c1 [Compound 216]
[7]; pH 2.3
  log p: 1.96[a]

## CCCOc1cccc(Nc2ncc(Br)c(NC3CCC3)n2)c1 [Compound 30, 5-Bromo-N^4-cyclobutyl-N^2-(3-propoxyphenyl)pyrimidine-2,4-diamine]
[1]
  chromatographic logP: 3.27
[7]; pH 2.3
  chromatographic logP: 3.27

## CN(C)C(=O)c1ccc(Nc2ncc(Br)c(NC3CCC3)n2)cc1 [Compound 100]
[4]
  herbicidal effect AMARE: 70%
[1]
  log p: 1.73[b]
[2]
  herbicidal effect STEME: 70%
[3]
  herbicidal effect CAPBP: 70%

## CC(=O)N(C)c1cccc(Nc2ncc(Cl)c(NC3CCC3)n2)c1 [Compound 261]
[6]
  log p: 2.49[c]

## CC(C#N)c1ccc(Nc2ncc(Cl)c(NC3CCC3)n2)cc1 (stereo not shown) [Compound 234]
[6]
  log p: 3.45[c]

## CC(=O)N(C)c1ccc(Nc2ncc(Cl)c(NC3CCC3)n2)cc1 [Compound 120]
[4]
  herbicidal effect AMARE: 90%
[1]
  log p: 1.64[b]
[3]
  herbicidal effect CAPBP: 70%

## CN(C)C(=O)c1cccc(Nc2ncc(Br)c(NC3CCC3)n2)c1 [Compound 155]
[4]
  herbicidal effect AMARE: 70%
[1]
  log p: 1.68[b]
[2]
  herbicidal effect STEME: 80%
[3]
  herbicidal effect CAPBP: 80%

## Fc1ccc(Nc2ncc(C(F)(F)F)c(NC3CCC3)n2)cc1 [Compound 58]
[6]
  log p: 4[c]
[7]; pH 2.3
  log p: 3.5[a];

## CCSc1cccc(Nc2ncc(C(F)(F)F)c(NC3CCC3)n2)c1 [Compound 235]
[6]
  log p: 4.8[c]

## NS(=O)(=O)c1cccc(Nc2ncc(Cl)c(NC3CCC3)n2)c1 [Compound 23]
[7]; method [a], HPLC on reversed-phase C 18, acidic range pH 2.3
  log p: 1.52[a]
[7]; pH 2.3, values given in the preparation examples
  logP (pH2.3): 1.52

## CNS(=O)(=O)c1ccc(Nc2ncc(Cl)c(NC3CCC3)n2)cc1 [compound 25]
[7]; pH 2.3
  log p: 2.01[a]

## CC(C)NC(=O)c1ccc(Nc2ncc(Cl)c(NC3CCC3)n2)cc1 [Compound 248]
[6]
  log p: 2.68[c]

## O=C(c1cccc(Nc2ncc(Cl)c(NC3CCC3)n2)c1)N1CCOCC1 [Compound 262]
[6]
  log p: 2.39[c]

## O=C1CCCCN1c1cccc(Nc2ncc(Br)c(NC3CCC3)n2)c1 [Compound 217]
[7]; pH 2.3
  log p: 1.77[a]

## O=C1CCCN1c1cccc(Nc2ncc(Br)c(NC3CCC3)n2)c1 [Compound 45]
[4]
  herbicidal effect AMARE: 70%
[1]
  log p: 1.84[b]
[2]
  herbicidal effect STEME: 80%
[3]
  herbicidal effect CAPBP: 70%

## CC(C)Oc1ccc(Nc2ncc(Cl)c(NC3CCC3)n2)cc1.Cl [Compound 2-6]
[7]; pH 2.3
  log p: 2.21^[a]

## Ic1cnc(Nc2ccccc2)nc1NC1CCC1 [Compound 236]
[7]; pH 2.3
  log p: 2.19[a]

## CC(=O)Nc1cccc(Nc2ncc(Br)c(NC3CCC3)n2)c1 [Compound 96]
[4]
  herbicidal effect AMARE: 70%
[1]
  log p: 1.54[b]
[2]
  herbicidal effect STEME: 70%
[3]
  herbicidal effect CAPBP: 90%

## CN1CCN(c2cccc(Nc3ncc(Br)c(NC4CCC4)n3)c2)C1=O [Compound 59]
[1]
  log p: 1.79[b]
[2]
  herbicidal effect STEME: 80%
[3]
  herbicidal effect CAPBP: 70%
[5]
  herbicidal effect ABUTH: 80%

## O=C1CCCN1c1cc(Nc2ncc(Cl)c(NC3CCC3)n2)ccc1F [Compound 212]
[7]; pH 2.3
  log p: 1.75[a]

## O=C1CCCN1c1ccc(Nc2ncc(C(F)(F)F)c(NC3CCC3)n2)cc1 [Compound 56]
[6]
  log p: 3.01[c]
[7]; pH 2.3
  log p: 2.51[a];

## Cc1ccc(S(=O)(=O)O)cc1.Cc1nc(Nc2ccccc2)nc(NC2CCC2)c1Cl [Compound 2-8]
[7]; pH 2.3
  log p: 1.95^[a]

## CSc1cccc(Nc2ncc(C(F)(F)F)c(NC3CCC3)n2)c1 [Compound 57]
[6]
  log p: 4.36[c]
[7]; pH 2.3
  log p: 4.05[a];

## Cl.Clc1cnc(Nc2ccccc2)nc1NC1CCC1 [Compound 2-2]
[7]; pH 2.3
  log p: 1.97^[a]

## O=c1[nH]c2ccc(Nc3ncc(Br)c(NC4CCC4)n3)cc2o1 [Compound 5]
[1]
  log p: 1.59[b]
[2]
  herbicidal effect STEME: 70%
[3]
  herbicidal effect CAPBP: 70%

## O=C1CCCN1c1cccc(Nc2ncc(Cl)c(NC3CCC3)n2)c1 [Compound 48]
[4]
  herbicidal effect AMARE: 70%
[6]
  log p: 2.74[c]
[7]; pH 2.3
  log p: 1.71[a];
[3]
  herbicidal effect CAPBP: 70%

## CSc1cccc(Nc2ncc(Br)c(NC3CCC3)n2)c1 [Compound 44]
[1]
  log p: 2.92[b]
[2]
  herbicidal effect STEME: 70%
[3]
  herbicidal effect CAPBP: 80%

## Clc1ncc(I)c(NC2CCC2)n1 [Compound V-3, 2-Chloro-N-cyclobutyl-5-iodopyrimidine-4-amine]
[7]; pH 2.3
  chromatographic logP: 3.08
